Source: patent US8598365B2, “Herbicides” (Syngenta Limited, priority 2007, dated 2013)

Experiments:
Test in all cases: Example B post-emergence herbicidal activity
Type in all cases: in vivo
[1] = system: Alopecurus myosuroides (ALOMY); settings: 312 h, evaluated after 13 days, read-out: Post-emergence activity ALOMY (100=total damage to plant; 0=no damage to plant); for pest or weed control at 250 g/ha: rate 250 g/ha
Procedure: (§1) Seeds of a variety of test species were sown in standard soil in pots. After cultivation for one day (pre-emergence) or after 8 days cultivation (post-emergence) under controlled conditions in a glasshouse (at 24/16° C., day/night; 14 hours light; 65% humidity), the plants were sprayed with an aqueous spray solution derived from the formulation of the technical active ingredient in acetone/water (50:50) solution containing 0.5% Tween 20 (polyoxyethelyene sorbitan monolaurate, CAS RN 9005-64-5).
(§2) The test plants were then grown in a glasshouse under controlled conditions in a glasshouse (at 24/16° C., day/night; 14 hours light; 65% humidity) and watered twice daily. After 13 days for pre and post-emergence, the test was evaluated (100=total damage to plant; 0=no damage to plant).
(§3) Alopecurus myosuroides (ALOMY), Avena fatua (AVEFA), Setaria faberi (SETFA), Echinochloa crus-galli (ECHCG), Solanum nigrum (SOLNI) and Amaranthus retoflexus (AMARE)

[2] = system: Amaranthus retoflexus (AMARE); settings: Amaranthus retroflexus, 312 h, evaluated after 13 days, read-out: Post-emergence activity AMARE (100=total damage to plant; 0=no damage to plant); for pest or weed control at 250 g/ha: rate 250 g/ha
Procedure: as §1, §2, §3

[3] = system: Avena fatua (AVEFA); settings: 312 h, evaluated after 13 days, read-out: Post-emergence activity AVEFA (100=total damage to plant; 0=no damage to plant); for pest or weed control at 250 g/ha: rate 250 g/ha
Procedure: as §1, §2, §3

[4] = system: Echinochloa crus-galli (ECHCG); settings: 312 h, evaluated after 13 days, read-out: Post-emergence activity ECHCG (100=total damage to plant; 0=no damage to plant); for pest or weed control at 250 g/ha: rate 250 g/ha
Procedure: as §1, §2, §3

[5] = system: Setaria faberi (SETFA); settings: 312 h, evaluated after 13 days, read-out: Post-emergence activity SETFA (100=total damage to plant; 0=no damage to plant); for pest or weed control at 250 g/ha: rate 250 g/ha
Procedure: as §1, §2, §3

Structure (SMILES)	pest or weed control at 250 g/ha [1]	pest or weed control at 250 g/ha [2]	pest or weed control at 250 g/ha [3]	pest or weed control at 250 g/ha [4]	pest or weed control at 250 g/ha [5]	pest or weed control at 1000 g/ha ([1]; rate 1000 g/ha)	pest or weed control at 1000 g/ha ([2]; rate 1000 g/ha)	pest or weed control at 1000 g/ha ([3]; rate 1000 g/ha)	pest or weed control at 1000 g/ha ([4]; rate 1000 g/ha)	pest or weed control at 1000 g/ha ([5]; rate 1000 g/ha)
CCc1sc(-c2cccc(Cl)c2Cl)nc1C1C(=O)[C@@H]2CC[C@@H](C2)C1=O (stereo partly shown) [Compound T98]	20%	0%	0%	70%	70%	–	–	–	–	–
Cc1scnc1C1C(=O)[C@@H]2CC[C@@H](C2)C1=O (stereo partly shown) [Compound T52]	0%	0%	0%	0%	0%	–	–	–	–	–
Cc1oc(-c2ccc(Cl)cc2)nc1C1C(=O)[C@@H]2CC[C@@H](C2)C1=O (stereo partly shown) [Compound T90]	0%	0%	0%	30%	40%	–	–	–	–	–
O=C1C(c2csc(-c3ccc(Cl)cc3)n2)C(=O)[C@H]2CC[C@@H]1C2 (stereo partly shown) [Compound T43, 3-[2-(4-chloro-phenyl)thiazol-4-yl]bicyclo[3.2.1]octane-2,4-dione]	20%	0%	0%	20%	60%	–	–	–	–	–
C=Cc1ccc(-c2nc(C3C(=O)[C@@H]4CC[C@@H](C4)C3=O)c(CC)s2)cc1 (stereo partly shown) [Compound T113]	90%	0%	100%	100%	90%	–	–	–	–	–
Cc1ncc(-c2ccc(Cl)cc2)cc1C1C(=O)[C@@H]2CC[C@@H](C2)C1=O (stereo partly shown) [Compound T118]	60%	0%	80%	60%	80%	–	–	–	–	–
Cc1sc(-c2ccc(Br)cc2)nc1C1C(=O)[C@H]2C[C@@H](C1=O)C2(C)C (stereo partly shown) [Compound T121]	70%	0%	80%	100%	90%	–	–	–	–	–
CCc1sc(-c2ccc(OC(C)C)c(Cl)c2)nc1C1C(=O)[C@@H]2CC[C@@H](C2)C1=O (stereo partly shown) [Compound T114]	10%	0%	0%	60%	90%	–	–	–	–	–
Cc1sc(-c2ccc(C(=O)O)cc2)cc1C1C(=O)C2CCC(C2)C1=O (stereo not shown) [Compound T24, 4-[4-(2,4-dioxobicyclo[3.2.1]oct-3-yl)-5-methylthiophen-2-yl]benzoic acid]	0%	0%	0%	0%	30%	–	–	–	–	–
CCc1sc(-c2ccc(C(=O)OC)cc2)nc1C1C(=O)[C@@H]2CC[C@@H](C2)C1=O (stereo partly shown) [Compound T107]	0%	0%	0%	60%	0%	–	–	–	–	–
CCc1sc(-c2ccc(Cl)cc2)[n+]([O-])c1C1C(=O)[C@@H]2CC[C@@H](C2)C1=O (stereo partly shown) [Compound T89]	0%	0%	0%	30%	80%	–	–	–	–	–
CCOc1ccc(-c2nc(C3C(=O)[C@@H]4CC[C@@H](C4)C3=O)c(CC)s2)cc1F (stereo partly shown) [Compound T112]	70%	0%	80%	100%	100%	–	–	–	–	–
Cc1nc(-c2ccc(Cl)cc2F)sc1C1C(=O)[C@@H]2CC[C@@H](C2)C1=O (stereo partly shown) [Compound T47]	30%	0%	0%	80%	90%	–	–	–	–	–
Cc1sc(-c2ccccc2Cl)nc1C1C(=O)[C@@H]2CC[C@@H](C2)C1=O (stereo partly shown) [Compound T71]	0%	0%	0%	20%	50%	–	–	–	–	–
Cc1nc(-c2ccc(Cl)c(Cl)c2)sc1C1C(=O)[C@@H]2CC[C@@H](C2)C1=O (stereo partly shown) [Compound T48]	20%	0%	0%	80%	80%	–	–	–	–	–
Cc1sc(-c2ccc(Cl)cc2)nc1C1C(=O)[C@H]2C[C@@H](C1=O)C2(C)C (stereo partly shown) [Compound T120]	40%	0%	60%	100%	90%	–	–	–	–	–
Cc1sc(-c2ccsc2)nc1C1C(=O)[C@@H]2CC[C@@H](C2)C1=O (stereo partly shown) [Compound T60]	0%	0%	0%	50%	60%	–	–	–	–	–
Cc1sc(-c2ccc(C=O)cc2)nc1C1=C(OC(=O)C(C)(C)C)[C@H]2CC[C@H](C2)C1=O [Compound P23]	0%	0%	0%	20%	30%	–	–	–	–	–
Cc1sc(-c2ccc(Cl)cc2C(F)(F)F)nc1C1C(=O)[C@@H]2CC[C@@H](C2)C1=O (stereo partly shown) [Compound T6]	0%	0%	0%	40%	50%	–	–	–	–	–
Cc1nc(-c2ccc(Cl)cc2)sc1C1C(=O)[C@@H]2CC[C@@H](C2)C1=O (stereo partly shown) [Compound T31]	0%	0%	0%	60%	80%	–	–	–	–	–
CCc1sc(-c2ccccc2OC)nc1C1C(=O)[C@@H]2CC[C@@H](C2)C1=O (stereo partly shown) [Compound T95]	80%	0%	30%	70%	80%	–	–	–	–	–
Cc1sc(-c2ccc(OC(C)C)c(Cl)c2)nc1C1C(=O)[C@@H]2CC[C@@H](C2)C1=O (stereo partly shown) [Compound T79]	0%	0%	0%	0%	10%	–	–	–	–	–
Cc1sc(CC(C)C)nc1C1C(=O)[C@@H]2CC[C@@H](C2)C1=O (stereo partly shown) [Compound T61]	0%	0%	0%	0%	20%	–	–	–	–	–
CCc1sc(-c2ccsc2)nc1C1C(=O)[C@@H]2CC[C@@H](C2)C1=O (stereo partly shown) [Compound T97]	0%	0%	0%	70%	70%	–	–	–	–	–
COC(=O)c1ccc(-c2cc(C3C(=O)[C@@H]4CC[C@@H](C4)C3=O)c(C)s2)cc1 (stereo partly shown) [Compound T25, 4-[4-(2,4-dioxobicyclo[3.2.1]oct-3-yl)-5-methylthiophen-2-yl]benzoic acid methyl ester]	–	–	–	–	–	20%	0%	0%	10%	30%
Cc1sc(-c2cccc(Cl)c2Cl)nc1C1C(=O)[C@@H]2CC[C@@H](C2)C1=O (stereo partly shown) [Compound T62]	0%	0%	0%	0%	60%	–	–	–	–	–
